Test results taken from ChEMBL document CHEMBL4257487, “Structure-guided design of a potent peptide inhibitor targeting the interaction between CRK and ABL kinase” (Medchemcomm, 2018).
Activity calls are given as the source filed them. The calls are words filed in the database; no cut-off is given here. Where a SMILES comes first, the peptide text is derived from it.

Columns and labels:
[1] = molecular target: T1, Adapter molecule crk (Homo sapiens, UniProt P46108); test: Binding affinity to recombinant human CRK-2 nSH3 domain (1 to 304 residues) expressed in Escherichia coli by NMR analysis
T1 sequence (P46108 whole entry, the tested form may be a part): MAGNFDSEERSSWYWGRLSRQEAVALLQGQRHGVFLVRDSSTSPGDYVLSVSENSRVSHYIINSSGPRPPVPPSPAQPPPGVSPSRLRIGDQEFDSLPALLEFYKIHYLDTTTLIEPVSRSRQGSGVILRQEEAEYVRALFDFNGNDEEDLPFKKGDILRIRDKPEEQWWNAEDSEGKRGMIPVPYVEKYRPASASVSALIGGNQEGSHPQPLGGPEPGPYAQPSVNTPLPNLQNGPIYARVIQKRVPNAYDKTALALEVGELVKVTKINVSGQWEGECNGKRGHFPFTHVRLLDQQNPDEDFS

[2] = molecular target: T1, Adapter molecule crk; test: Binding affinity to human c-CRK N-terminal SH3 domain expressed in Escherichia coli BL21 (DE3) by tryptophan fluorescence quenching assay
[3] = molecular target: T1, Adapter molecule crk; test: Binding affinity to recombinant human CRK-2 nSH3 domain (1 to 304 residues) expressed in Escherichia coli assessed as inhibition of interaction with Abl by measuring Abl-mediated CRK-2 phosphorylation at Y221 residue at 1 uM after 10 to 30 mins by PAGE analysis (reference value: 62%); parameters: scale not given: the % may be the effect or the level left
[4] = molecular target: T1, Adapter molecule crk; test: Binding affinity to recombinant human CRK-2 nSH3 domain (1 to 304 residues) expressed in Escherichia coli assessed as inhibition of Abl T315I mutant-mediated CRK-2 phosphorylation at Y221 residue at 1 uM after 10 to 30 mins by PAGE analysis
[5] = molecular target: T1, Adapter molecule crk; test: Binding affinity to recombinant human CRK-2 nSH3 domain (1 to 304 residues) expressed in Escherichia coli by tryptophan fluorescence quenching assay
[6] = molecular target: T1, Adapter molecule crk; test: Binding affinity to recombinant human CRK-2 nSH3 domain (1 to 304 residues) expressed in Escherichia coli at 25 degC by tryptophan fluorescence quenching assay
[7] = molecular target: T1, Adapter molecule crk; test: Ratio of Kd for recombinant human CRK-2 nSH3 domain (1 to 304 residues) expressed in Escherichia coli at 35 degC in presence of 1 M NaCl to Kd for recombinant human CRK-2 nSH3 domain (1 to 304 residues) expressed in Escherichia coli at 35 degC in presence of 80 mM NaCl

## CC(C)C[C@H](NC(=O)[C@H](C)NC(=O)[C@@H]1CCCN1C(=O)[C@@H]1CCCN1C(=O)[C@@H]1CCCN1)C(=O)N1CCC[C@H]1C(=O)N1CCC[C@H]1C(=O)N[C@@H](CCCCN)C(=O)N[C@@H](CCCCN)C(=O)N[C@@H](CCCNC(=N)N)C(=O)O
[1]
  Activity: Active
[2]
  Kd: 1.9 µM

## Cc1ccc(NC(=O)c2ccc(CN3CCN(C)CC3)cc2)cc1Nc1nccc(-c2cccnc2)n1
[3]
  Activity: 33%
[4]
  inhibition: inactive

## CC(C)C[C@H](NC(=O)[C@H](C)NC(=O)[C@@H]1CCCN1C(=O)[C@@H]1CCCN1C(=O)[C@@H]1CCCN1C(=O)[C@H](CO)NC(=O)[C@H](CC(N)=O)NC(=O)[C@@H](N)CC(=O)O)C(=O)N1CCC[C@H]1C(=O)N[C@@H](CCCCN)C(=O)N[C@@H](CCCCN)C(=O)N[C@@H](CCCNC(=N)N)C(=O)N[C@@H](CCC(N)=O)C(=O)N[C@@H](CO)C(=O)N[C@@H](Cc1ccc(O)cc1)C(=O)O (H-DNSPPPALPKKRQSY-OH)
[5]
  Kd: 0.4 µM
[1]
  Activity: Active

## CC(C)C[C@H](NC(=O)[C@H](C)NC(=O)[C@@H]1CCCN1C(=O)[C@@H]1CCCN1C(=O)[C@@H](N)CO)C(=O)N1CCC[C@H]1C(=O)N[C@@H](CCCCN)C(=O)N[C@@H](CCCCN)C(=O)N[C@@H](CCCNC(=N)N)C(=O)N[C@@H](CCC(N)=O)C(=O)N[C@@H](CO)C(=O)N[C@@H](Cc1ccc(O)cc1)C(=O)N[C@@H](CCCNC(=N)N)C(=O)N[C@@H](CCCNC(=N)N)C(=O)O (H-SPPALPKKRQSYRR-OH)
[6]
  Kd: 0.009 µM
[3]
  Activity: 21%
[5]
  Kd: 0.009 µM
[1]
  Activity: Active
[4]
  inhibition: Active
[7]
  Ratio: 50
